Measurements reported in publication PMC10934261, “Designing Potent Anti-Cancer Agents: Synthesis and Molecular Docking Studies of Thieno[2,3-d][1,2,4]triazolo[1,5-a]pyrimidine Derivatives” (Molecules, 2024).

What was measured:
[1] = tested on: human prostate PC-3 cancer cell line; assay: In vitro cytotoxic screening (MTT assay), PC-3; assay type: cell-based; details: average ± standard deviation
Procedure: (§1) Using human breast MCF-7, colorectal HCT-116, and prostate PC-3 cancer cell lines, preliminary antiproliferative effectiveness of cyclopenta[4,5]thieno[2,3-d][1,2,4]triazolo[1,5-a]pyrimidin-9(6H)-ones 4–16 was established in vitro through MTT assay at different concentrations (100, 50, 25 and 12.5 μM) (Figure 2).
(§2) The cell lines were obtained from Karolinska Center, Department of Oncology and Pathology, Karolinska Institute and Hospital, Stockholm, Sweden. as follows: human breast MCF-7, colorectal HCT-116 and prostate PC-3 cancer cell lines and human skin normal BJ-1 cell line. Exponentially, cells were cultured at a concentration of 10^4 cells/well for 24 h, afterwards fresh medium containing different concentrations of the tested samples was added. Serial two-fold dilution of the tested samples were added using a multichannel pipette. Moreover, all cells were cultivated at 37 °C, 5% CO2 and 95% humidity. Also, incubation of control cells occurred at 37 °C. However, after incubation for 24 h different concentrations of samples (100, 50, 25 and 12.5 µM) were added and the incubation was continued for 48 h, then crystal violet solution 1% was added to each well for 0.5 h to examine the presence of viable cells. After rinsing the wells using water until stain free, 30% glacial acetic acid was added to all wells with shaking the plates on a Microplate reader (TECAN, Inc.) to measure the absorbance at a wavelength of 490 nm. The cytotoxicity was estimated by IC50 in μM, which is the concentration that inhibits 50% of growth of cancer cells. […]
(§3) 1.1. In vitro cytotoxic screening
(§4) The cell lines were obtained from Karolinska Center, Department of Oncology and Pathology, Karolinska Institute and Hospital, Stockholm, Sweden. as follows: human breast MCF-7, colorectal HCT-116 and prostate PC-3 cancer cell lines and human skin normal BJ-1 cell line. Exponentially, cells were placed in 10^4 cells/ well for 24 h, and then add fresh medium which containing different concentration of the tested sample. Serial two-fold dilution of the tested sample were added using a multichannel pipette. Moreover, all cells were cultivated at 37 °C, 5% CO2 and 95% humidity. Also, incubation of control cells occurred at 37 °C. However, after incubation for 24 h different concentrations of sample (100, 50, 25 and 12.5 µM) were added and continued the incubation for 48 h, then, add the crystal violet solution 1% to each well for 0.5 h to examine viable cells. Rinse the wells using water until no stain. After that, add 30% glacial acetic acid to all wells with shaking plates on Microplate reader (TECAN, Inc.) to measure the absorbance, using a test wavelength of 490 nm. Besides, compare the treated samples with the control cell. The cytotoxicity was estimated by IC50 in (μ M), the concentration that inhibits 50% of growth of cancer cell. […]
(§5) The molecular docking simulation of the promising in vitro screened cyclopenta[4,5]thieno[2,3-d][1,2,4]triazolo[1,5-a]pyrimidin-9(6H)-ones 10b and 10e against EGFR and PI3K was done using the Molecular Operating Environment software (MOE-Dock) version 2014.0901. The co-crystallized structures of EGFR and PI3K kinases complexed with their native ligands, erlotinib and quinolone LXX, were downloaded from the protein data bank (PDB codes: 1M17 and 3L54, respectively). All minimizations were performed using MOE until an RMSD gradient of 0.05 kcal∙mol−1Å−1 with MMFF94x force field and the partial charges were automatically calculated. Preparation of the enzyme structures was done for molecular docking using Protonate 3D protocol with the default options in MOE. London dG scoring function and Triangle Matcher placement method were used in the docking protocol. Initially, the original ligands were re-docked into the active binding site of EGFR and PI3K kinases to assess the root-mean-square deviation values. Then, the docking studies of the newly targeted […]

[2] = tested on: human breast MCF-7 cancer cell line; assay: In vitro cytotoxic screening (MTT assay), MCF-7; assay type: cell-based; details: for Percentage cytotoxicity on MCF-7: average ± standard deviation
Procedure: as §1, §2, §3, §4, §5

[3] = tested on: human colorectal HCT-116 cancer cell line; assay: In vitro cytotoxic screening (MTT assay), HCT-116; assay type: cell-based; details: average ± standard deviation
Procedure: as §1, §2, §3, §4, §5

SMILES	Percentage cytotoxicity on PC-3 ([1]; 12.5 µM) [%]	Percentage cytotoxicity on PC-3 ([1]; 25 µM) [%]	Percentage cytotoxicity on PC-3 ([1]; 50 µM) [%]	Percentage cytotoxicity on PC-3 ([1]; 100 µM) [%]	Percentage cytotoxicity on MCF-7 ([2]; 12.5 µM) [%]	Percentage cytotoxicity on MCF-7 ([2]; 25 µM) [%]	Percentage cytotoxicity on MCF-7 ([2]; 50 µM) [%]	Percentage cytotoxicity on MCF-7 ([2]; 100 µM) [%]	Percentage cytotoxicity on HCT-116 ([3]; 12.5 µM) [%]	Percentage cytotoxicity on HCT-116 ([3]; 25 µM) [%]	Percentage cytotoxicity on HCT-116 ([3]; 50 µM) [%]	Percentage cytotoxicity on HCT-116 ([3]; 100 µM) [%]	melting point [°C]	IC50 ([2]; Homo sapiens, MCF7, MCF-7, 48 h incubation, mean of three values, read-out: IC50 (Mean ± SD) MCF-7) [µM]
O=c1c2c3c(sc2nc2[nH]c(-c4ccc([N+](=O)[O-])cc4)nn12)CCC3 [Compound 10c, 2-(4-Nitrophenyl)-3,6,7,8-tetrahydro-9H-cyclopenta[4,5]thieno[2,3-d][1,2,4]triazolo[1,5-a]pyrimidin-9-one]	48.3±2.0	53.4±1.2	54.8±1.6	54.7±2.8	8.18±1.01	24.04±2.59	25.97±1.28	33.62±2.13	20.2±2.9	38.2±0.9	39.4±0.9	40.4±2.4	220	–
O=c1c2c3c(sc2nc2nc([C@@H](O)[C@@H](O)[C@H](O)[C@H](O)CO)[nH]n12)CCC3 [Compound 11c, 2-((1R,2R,3R,4R)-1,2,3,4,5-pentahydroxypentyl)-1,6,7,8-tetrahydro-9H-cyclopenta[4,5]thieno[2,3-d][1,2,4]triazolo[1,5-a]pyrimidin-9-one]	0.0±0.005	0.0±0.005	0.0±0.005	8.5±4.5	0.0±0.005	0.0±0.005	16.5±2.1	38.7±1.5	12.7±1.7	19.5±3.7	22.3±0.9	20.6±5.4	> 300	–
CC(=O)OC[C@@H](OC(C)=O)[C@@H](OC(C)=O)[C@H](OC(C)=O)c1nc2nc3sc4c(c3c(=O)n2[nH]1)CCC4 [Compound 12d, (1R,2S,3R)-1-(9-oxo-1,7,8,9-tetrahydro-6H-cyclopenta[4,5]thieno[2,3-d][1,2,4]triazolo[1,5-a]pyrimidin-2-yl)butane-1,2,3,4-tetrayl tetraacetate]	0.0±0.005	0.0±0.005	0.0±0.005	14.1±6.2	0.0±0.005	0.0±0.005	0.0±0.005	26.9±4.8	0.0±0.005	0.0±0.005	0.0±0.005	9.5±1.2	> 300	–
CCOC(=O)Cc1nn2c(=O)c3c4c(sc3nc2[nH]1)CCC4 [Compound 6, Ethyl 2-(9-oxo-6,7,8,9-tetrahydro-3H-cyclopenta[4,5]thieno[2,3-d][1,2,4]triazolo[1,5-a]-pyrimidin-2-yl)acetate]	0.0±0.005	0.0±0.005	0.0±0.005	15.1±4.1	0.0±0.005	0.0±0.005	0.0±0.005	24±2.5	0.0±0.005	0.0±0.005	0.0±0.005	0.0±0.005	> 300	–
CC(=O)C/C(C)=N/n1c(N[C@@H]2O[C@H](COC(C)=O)[C@@H](OC(C)=O)[C@H](OC(C)=O)[C@H]2OC(C)=O)nc2sc3c(c2c1=O)CCC3 [Compound 15, (E)-3-((4-Oxopentan-2-ylidene)amino)-2-((2,3,4,6-tetra-O-acetyl-β-D-glocopyranosyl)amino)-6,7-dihydro-3H-cyclopenta[4,5]thieno[2,3-d]pyrimidin-4(5H)-one]	0.0±0.005	0.0±0.005	0.0±0.005	5.6±1.2	0.0±0.005	0.0±0.005	0.0±0.005	19.7±3.7	0.0±0.005	0.0±0.005	0.0±0.005	3.0±1.2	> 300	–
CC(=O)OC[C@@H](OC(C)=O)[C@H](OC(C)=O)[C@H](OC(C)=O)[C@@H](OC(C)=O)c1nc2nc3sc4c(c3c(=O)n2[nH]1)CCC4 [Compound 12b, (1S,2R,3S,4R)-1-(9-oxo-1,7,8,9-tetrahydro-6H-cyclopenta[4,5]thieno[2,3-d][1,2,4]triazolo[1,5-a]pyrimidin-2-yl)pentane-1,2,3,4,5-pentayl pentaacetate]	1.5±2.3	4.8±1.1	7.3±0.9	20.6±3.3	0.0±0.005	5.5±0.6	20.8±2.1	30.1±7.5	0.0±0.005	0.0±0.005	0.0±0.005	13.3±3.1	> 300	–
O=c1c2c3c(sc2nc2[nH]c(-c4ccc(Cl)cc4)nn12)CCC3 [Compound 10a, 2-(4-Chlorophenyl)-7,8-dihydro-3H-cyclopenta[4,5]thieno[2,3-d][1,2,4]triazolo[1,5-a]pyrimidin-9(6H)-one]	20.7±3.9	30.7±0.5	35.9±0.8	40.9±4.1	16.5±9.5	33.3±0.8	44.4±11.2	61.4±4.7	14.4±2.3	17.8±1.7	17.9±1.7	20.3±2.1	220 to 222	60.6 ± 0.45
COc1ccc(-c2nn3c(=O)c4c5c(sc4nc3n2[C@@H]2O[C@H](COC(C)=O)[C@@H](OC(C)=O)[C@H](OC(C)=O)[C@H]2OC(C)=O)CCC5)cc1 [Compound 16, 2-(4-Methoxyphenyl)-3-(2,3,4,6-tetra-O-acetyl-β-D-glocopyranosyl)-7,8-dihydro-3H-cyclopenta[4,5]thieno[2,3-d][1,2,4]triazolo[1,5-a]pyrimidin-9(6H)-one]	0.0±0.005	0.0±0.005	0.0±0.005	14.5±1.6	0.0±0.005	0.0±0.005	0.0±0.005	29.5±1.6	0.0±0.005	0.0±0.005	0.0±0.005	1.0±0.5	> 300	–
